Assay results published in publication PMC10120462, “Styrylquinazoline derivatives as ABL inhibitors selective for different DFG orientations” (Journal of Enzyme Inhibition and Medicinal Chemistry, 2023).
Counter-ions that a name gives are not always drawn.

How the values were obtained:
BTK = target: T1, BTK (Homo sapiens, UniProt Q06187); test: Tyrosine kinase assay (Kinase Selectivity System TK-2, ADP-Glo); assay type: biochemical; settings: 1 h incubation, mean ± SD of four experiments
T1 construct: purchased Promega

Fyn A = target: T2, Fyn A (Homo sapiens, UniProt P06241); test: as above; assay type: biochemical; settings: 1 h incubation, mean ± SD of four experiments
T2 construct: purchased Promega
From the text: All newly synthesised derivatives were screened for their inhibitory potential towards eight non-receptor tyrosine kinases, such as ABL, BTK, BRK and Src family kinases, such as CSK, Lyn, Lck, Fyn and Src. […] To facilitate the analysis of the structure and enzymatic activity, all tested compounds were divided into four subgroups based on the main structural scaffolds (the general structure of each group is shown in the second column of Table 1). Series A, B, and C were subdivided according to the S^4-aryl substituent, while D represents the different styryl groups at the C^2-quinazoline position.
Herein, we used a kinase assay that contained fully expressed kinases with their regulatory domains, which are responsible for autoinhibition. The proteins are present in their unphosphorylated form and the procedure required supplementation with ATP. Importantly, autophosphorylation of ABL is dependent on […] concentration of the protein. Thus, our experimental conditions reflect the cellular process to be simulated. The luminescence signal detected after one hour of incubation with a peptide substrate was a measure of inhibition. Under these conditions, the question of whether the inhibitors tested bind to the ortho or allosteric site of the protein could be answered. […] To test this hypothesis, further molecular docking experiments were performed to more precisely determine the binding of the tested compounds to the ABL kinase.
To determine the inhibition of non-receptor tyrosine kinases, assays were performed using the kinase selectivity system TK-2 and the ADP-Glo Kinase Assay (both from Promega). The protocol was previously developed by our group and described in reports[12]^,[36]. Experiments were performed at least four times. Data are expressed as percentage of tyrosine kinase inhibitory activity after treatment with the derivatives tested.

A549 = test: Cytotoxicity studies (MTS), antiproliferative activity; assay type: cell-based, human; settings: Homo sapiens, A549; 72 h, MTS
From the text: (§1) In contrast, the other cell lines studied represent common cancers found in the human population. Nevertheless, these cell lines are characterised by a different landscape of kinase expression, as reported in[36]. In chronic leukaemia cells, an aberration of the Philadelphia chromosome is common in which a fragment of chromosome 9 is displaced to chromosome 22, leading to the formation of the oncogenic protein BCR-ABL. The altered structure of the protein leads to abnormal activity that promotes excessive growth and differentiation of cells even in the absence of growth factors, as well as inhibition of apoptosis and formation of metastases. Moreover, the status of the TP53 gene in leukaemia is not insignificant. Mutations of the TP53 gene occur in more than 50% of all cancers, leading to increased metastasis and an overall poor prognosis[38]^,[39]. The p53 protein encoded by this gene plays a pivotal role in controlling cell division or cell fate when damage is detected. […] Therefore, interaction between the signalling network of the BCR-ABL pathway and p53 often results in an impairment of p53 function and survival[43]^,[44]. […] Selectivity studies were performed on normal human fibroblast – NHDF cell line.
(§2) M. Rusin from the Maria Sklodowska-Curie Memorial Cancer Centre and Institute of Oncology in Gliwice, Poland. […] G. Kramer-Marek from the Institute of Cancer Research in London, United Kingdom. The human suspension chronic myeloids leukaemia cell line K562 and the pancreatic ductal adenocarcinoma cell line PANC-1 were purchased from Merck. The normal human dermal fibroblasts cell line NHDF were obtained from PromoCell. All adherent cancer cell lines were cultured in Dulbecco’s Modified Eagle’s medium (DMEM) supplemented with 10% heat-inactivated foetal bovine serum – FBS (all from Merck). […] Each complete medium contained a mixture of two antibiotics - penicillin and streptomycin (1% v/v; Gibco). Cell lines were cultured at 37 °C with 5% CO2 humidified atmosphere.
(§3) The assay was carried out after 72 h of incubation with different concentrations of the tested compounds. Then DMEM without phenol red was added to each well with CellTiter 96®AQueous One Solution-MTS (Promega) solution and incubated for 1 h or 3 h (PANC-1) at 37 °C. The optical densities of the samples were measured at 490 nm using a multi-plate reader (Synergy 4, BioTek). […] Each compound was tested in triplicate in a single experiment and each experiment was performed three or four times.

HCT 116 p53+/+ = test: as above; assay type: cell-based, human; settings: Homo sapiens, HCT-116; 72 h, MTS
From the text: as §1, §2, §3

HCT 116 p53−/− = test: as above; assay type: cell-based, human; settings: Homo sapiens, HCT-116; 72 h, MTS
From the text: as §1, §2, §3

K562 = test: as above; assay type: cell-based, human; settings: Homo sapiens, K562; 72 h, MTS
From the text: as §1, §2, §3

MCF-7 = test: as above; assay type: cell-based, human; settings: Homo sapiens, MCF7; 72 h, MTS
From the text: as §1, §2, §3

PANC-1 = test: as above; assay type: cell-based, human; settings: Homo sapiens, PANC-1; 72 h, MTS
From the text: as §1, §2, §3

U-251 = test: as above; assay type: cell-based, human; settings: Homo sapiens, U-251; 72 h, MTS
From the text: as §1, §2, §3

NHDF = test: Cytotoxicity studies (MTS), normal fibroblasts; assay type: cell-based; settings: 72 h, normal human fibroblasts, read-out: Antiproliferative activity IC50 NHDF
From the text: as §1, §2, §3

ABL = target: T3, ABL (Homo sapiens, UniProt P00519); test: Tyrosine kinase assay (Kinase Selectivity System TK-2, ADP-Glo); assay type: biochemical; settings: 1 h incubation, mean ± SD of four experiments; for Inhibition of tyrosine kinase activity [%] ABL: 0.5 μM
T3 construct: purchased Promega

BRK = target: T4, BRK (Homo sapiens, UniProt Q13882); test: as above; assay type: biochemical; settings: 1 h incubation, mean ± SD of four experiments
T4 construct: purchased Promega

CSK = target: T5, CSK (Homo sapiens, UniProt P41240); test: as above; assay type: biochemical; settings: 1 h incubation, mean ± SD of four experiments
T5 construct: purchased Promega

Lck = target: T6, Lck (Homo sapiens, UniProt P06239); test: as above; assay type: biochemical; settings: 1 h incubation, mean ± SD of four experiments
T6 construct: purchased Promega

Lyn B = target: T7, Lyn B (Homo sapiens, UniProt P07948); test: as above; assay type: biochemical; settings: 1 h incubation, mean ± SD of four experiments
T7 construct: purchased Promega

Src = target: T8, Src (Homo sapiens, UniProt P12931); test: as above; assay type: biochemical; settings: 1 h incubation, mean ± SD of four experiments
T8 construct: purchased Promega
T8 sequence (P12931 whole entry): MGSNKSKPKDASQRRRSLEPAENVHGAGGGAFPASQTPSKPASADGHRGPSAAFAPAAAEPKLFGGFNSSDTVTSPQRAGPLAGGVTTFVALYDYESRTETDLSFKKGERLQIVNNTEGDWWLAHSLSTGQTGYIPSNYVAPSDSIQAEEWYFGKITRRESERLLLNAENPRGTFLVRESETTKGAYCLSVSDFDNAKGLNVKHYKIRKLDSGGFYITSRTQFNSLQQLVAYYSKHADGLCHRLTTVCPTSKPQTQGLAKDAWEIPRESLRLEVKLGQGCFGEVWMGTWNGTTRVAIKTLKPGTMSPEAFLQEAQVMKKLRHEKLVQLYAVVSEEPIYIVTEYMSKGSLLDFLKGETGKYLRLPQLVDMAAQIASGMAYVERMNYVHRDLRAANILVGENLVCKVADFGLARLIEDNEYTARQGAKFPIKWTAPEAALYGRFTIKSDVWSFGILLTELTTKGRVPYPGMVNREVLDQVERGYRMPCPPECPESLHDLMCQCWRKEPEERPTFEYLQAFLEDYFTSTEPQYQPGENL

T7 sequence (P07948 1-491 isoform P07948-2): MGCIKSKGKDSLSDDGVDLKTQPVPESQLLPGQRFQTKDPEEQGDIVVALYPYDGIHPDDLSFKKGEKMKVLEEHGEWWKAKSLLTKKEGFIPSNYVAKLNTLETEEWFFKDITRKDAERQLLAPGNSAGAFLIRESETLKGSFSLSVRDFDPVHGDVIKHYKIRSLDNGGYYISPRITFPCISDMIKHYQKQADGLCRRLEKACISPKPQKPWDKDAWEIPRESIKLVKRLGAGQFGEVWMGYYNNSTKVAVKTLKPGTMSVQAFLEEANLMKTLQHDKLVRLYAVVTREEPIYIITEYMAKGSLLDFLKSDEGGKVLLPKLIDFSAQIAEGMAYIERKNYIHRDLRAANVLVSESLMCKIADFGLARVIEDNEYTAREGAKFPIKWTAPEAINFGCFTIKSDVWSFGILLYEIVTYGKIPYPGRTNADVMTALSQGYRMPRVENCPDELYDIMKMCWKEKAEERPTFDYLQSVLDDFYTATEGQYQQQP
T3 sequence (P00519 whole entry): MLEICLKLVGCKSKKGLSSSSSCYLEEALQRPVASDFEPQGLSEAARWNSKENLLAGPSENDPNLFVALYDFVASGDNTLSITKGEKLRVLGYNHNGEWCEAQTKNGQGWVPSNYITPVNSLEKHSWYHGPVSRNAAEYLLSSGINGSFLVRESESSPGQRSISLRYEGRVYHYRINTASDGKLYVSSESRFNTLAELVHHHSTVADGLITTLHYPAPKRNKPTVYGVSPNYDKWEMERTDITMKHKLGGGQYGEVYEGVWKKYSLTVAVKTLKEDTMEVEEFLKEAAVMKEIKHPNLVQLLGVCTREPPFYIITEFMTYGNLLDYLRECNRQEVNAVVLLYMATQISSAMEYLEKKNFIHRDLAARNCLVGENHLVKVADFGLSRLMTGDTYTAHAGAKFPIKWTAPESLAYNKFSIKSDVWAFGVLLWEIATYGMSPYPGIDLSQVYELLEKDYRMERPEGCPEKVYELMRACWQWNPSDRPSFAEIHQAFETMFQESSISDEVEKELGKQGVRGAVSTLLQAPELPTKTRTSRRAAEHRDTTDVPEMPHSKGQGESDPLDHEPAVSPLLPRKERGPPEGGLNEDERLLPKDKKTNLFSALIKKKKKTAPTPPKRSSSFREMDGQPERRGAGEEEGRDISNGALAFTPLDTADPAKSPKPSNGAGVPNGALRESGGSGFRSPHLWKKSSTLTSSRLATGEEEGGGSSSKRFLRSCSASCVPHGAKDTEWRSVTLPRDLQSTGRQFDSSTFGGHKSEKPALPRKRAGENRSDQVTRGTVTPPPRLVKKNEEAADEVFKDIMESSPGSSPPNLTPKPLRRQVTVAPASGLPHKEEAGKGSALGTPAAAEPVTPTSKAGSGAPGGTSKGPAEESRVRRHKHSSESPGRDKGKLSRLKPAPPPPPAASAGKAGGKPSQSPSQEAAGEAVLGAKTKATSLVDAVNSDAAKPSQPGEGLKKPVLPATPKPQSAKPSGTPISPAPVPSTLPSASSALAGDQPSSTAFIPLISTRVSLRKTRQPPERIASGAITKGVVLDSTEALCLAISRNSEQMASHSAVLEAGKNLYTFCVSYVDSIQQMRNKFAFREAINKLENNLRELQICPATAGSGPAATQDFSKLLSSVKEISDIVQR
T2 sequence (P06241 whole entry): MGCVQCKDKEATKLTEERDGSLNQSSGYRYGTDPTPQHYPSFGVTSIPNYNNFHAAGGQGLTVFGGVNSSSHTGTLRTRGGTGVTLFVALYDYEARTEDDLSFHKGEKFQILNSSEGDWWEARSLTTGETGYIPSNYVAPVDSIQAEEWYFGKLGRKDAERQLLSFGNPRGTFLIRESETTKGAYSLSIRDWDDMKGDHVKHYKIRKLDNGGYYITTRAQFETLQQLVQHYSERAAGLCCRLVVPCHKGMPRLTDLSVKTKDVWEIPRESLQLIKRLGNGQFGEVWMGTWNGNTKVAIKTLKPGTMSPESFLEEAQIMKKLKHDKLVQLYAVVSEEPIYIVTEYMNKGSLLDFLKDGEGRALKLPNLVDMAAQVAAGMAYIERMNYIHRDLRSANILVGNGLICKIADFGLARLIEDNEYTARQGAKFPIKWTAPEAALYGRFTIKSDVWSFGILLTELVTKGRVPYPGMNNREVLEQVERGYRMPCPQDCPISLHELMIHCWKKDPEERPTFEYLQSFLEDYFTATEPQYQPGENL
T4 sequence (Q13882 whole entry): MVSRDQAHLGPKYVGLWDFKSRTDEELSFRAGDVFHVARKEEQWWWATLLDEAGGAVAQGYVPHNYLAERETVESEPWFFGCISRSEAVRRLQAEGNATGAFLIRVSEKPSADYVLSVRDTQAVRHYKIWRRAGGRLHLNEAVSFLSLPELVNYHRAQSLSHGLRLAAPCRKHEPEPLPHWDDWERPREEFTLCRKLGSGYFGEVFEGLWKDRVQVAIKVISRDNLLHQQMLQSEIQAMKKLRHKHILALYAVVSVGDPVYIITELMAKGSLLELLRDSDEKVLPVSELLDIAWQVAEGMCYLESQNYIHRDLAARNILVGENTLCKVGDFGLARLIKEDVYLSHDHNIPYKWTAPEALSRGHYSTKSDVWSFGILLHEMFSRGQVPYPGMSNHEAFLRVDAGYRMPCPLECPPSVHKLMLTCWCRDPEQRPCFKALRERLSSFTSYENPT
T6 sequence (P06239 whole entry): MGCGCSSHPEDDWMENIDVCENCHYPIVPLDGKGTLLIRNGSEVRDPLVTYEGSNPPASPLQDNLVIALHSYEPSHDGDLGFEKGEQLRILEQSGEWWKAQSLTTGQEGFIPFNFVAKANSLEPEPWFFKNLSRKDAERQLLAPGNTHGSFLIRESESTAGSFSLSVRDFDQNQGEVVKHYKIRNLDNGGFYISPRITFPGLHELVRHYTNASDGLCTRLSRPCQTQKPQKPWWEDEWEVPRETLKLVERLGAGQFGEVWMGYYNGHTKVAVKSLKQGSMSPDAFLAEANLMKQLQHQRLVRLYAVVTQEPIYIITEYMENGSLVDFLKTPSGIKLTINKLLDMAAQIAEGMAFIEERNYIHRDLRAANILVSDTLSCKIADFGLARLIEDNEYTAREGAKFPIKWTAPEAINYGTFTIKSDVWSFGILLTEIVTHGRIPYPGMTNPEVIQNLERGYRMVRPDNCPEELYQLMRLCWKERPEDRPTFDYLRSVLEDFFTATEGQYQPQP
T1 sequence (Q06187 whole entry): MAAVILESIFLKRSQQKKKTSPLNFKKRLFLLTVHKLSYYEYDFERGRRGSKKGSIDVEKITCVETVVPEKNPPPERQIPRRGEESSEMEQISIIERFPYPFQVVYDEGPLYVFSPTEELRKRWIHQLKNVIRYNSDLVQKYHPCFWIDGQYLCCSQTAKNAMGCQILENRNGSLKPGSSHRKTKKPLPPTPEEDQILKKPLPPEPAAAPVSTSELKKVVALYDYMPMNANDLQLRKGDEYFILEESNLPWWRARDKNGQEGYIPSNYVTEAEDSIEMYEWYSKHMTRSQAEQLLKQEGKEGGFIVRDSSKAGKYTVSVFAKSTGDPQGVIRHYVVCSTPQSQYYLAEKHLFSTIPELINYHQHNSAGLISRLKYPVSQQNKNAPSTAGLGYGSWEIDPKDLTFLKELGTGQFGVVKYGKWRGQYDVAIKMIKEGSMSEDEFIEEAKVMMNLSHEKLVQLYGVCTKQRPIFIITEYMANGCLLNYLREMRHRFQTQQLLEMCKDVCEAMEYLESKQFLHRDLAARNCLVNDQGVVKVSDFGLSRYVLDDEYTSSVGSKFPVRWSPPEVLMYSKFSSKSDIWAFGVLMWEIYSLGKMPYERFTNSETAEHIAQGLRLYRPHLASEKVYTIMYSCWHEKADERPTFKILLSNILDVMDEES

Row | inhibition at 0.5 µM (BTK) [%] | inhibition at 0.5 µM (Fyn A) [%] | Inhibition of tyrosine kinase activity [%] ABL (ABL) | inhibition at 0.5 µM (ABL) [%] | inhibition at 0.5 µM (BRK) [%] | inhibition at 0.5 µM (CSK) [%] | inhibition at 0.5 µM (Lck) [%] | inhibition at 0.5 µM (Lyn B) [%] | inhibition at 0.5 µM (Src) [%] | Inhibition of tyrosine kinase activity [%] BTK (BTK; 0.5 μM) | Inhibition of tyrosine kinase activity [%] Lyn B (Lyn B; 0.5 μM) [%] | Inhibition of tyrosine kinase activity [%] Src (Src; 0.5 μM) [%] | Compound | IC50 (A549) [µM] | IC50 (HCT 116 p53+/+) [µM] | IC50 (HCT 116 p53−/−) [µM] | IC50 (K562) [µM] | IC50 (MCF-7) [µM] | IC50 (PANC-1) [µM] | IC50 (U-251) [µM] | IC50 (NHDF) [µM]
1 | 39.3 ± 2.69 | 57.5 ± 4.04 | 41.81 ± 4.38% | 41 | 27.2 ± 1.31 | 33.1 ± 1.19 | 51.5 ± 4.55 | 32.3 ± 2.51 | 53.4 ± 3.13 | – | – | – | COc1ccccc1/C=C/c1nc(Sc2cc3c(cc2Br)OCO3)c2ccc(Cl)cc2n1 [IS15, 5-{2-[(E)-2–(2-methoxyphenyl)ethenyl]-7-chloroquinazolin-4-ylthio}-6-bromo-2H-1,3-benzodioxole] | > 25 | > 25 | > 25 | 21.2 ± 2.19 | > 25 | > 25 | > 25 | > 25
2 | 2.87 ± 0.67 | 19.1 ± 3.57 | inactive | 18.4 ± 2.37 | 0 | 50.7 ± 5.6 | 0 | 0.86 ± 0.23 | 40.9 ± 1.77 | – | – | – | COc1ccccc1/C=C/c1nc(Sc2cc3c(cc2Br)OCO3)c2ccccc2n1 [IS11, 5-{2-[(E)-2–(2-methoxyphenyl)ethenyl]quinazolin-4-ylthio}-6-bromo-2H-1,3-benzodioxole] | > 5 | > 15 | > 15 | > 2.5 | – | > 10 | > 5 | 21.7 ± 1.53
3 | 9.58 ± 0.62 | 19.8 ± 3.51 | inactive | 11.9 ± 2.86 | 0 | 7.77 ± 3.16 | 0 | 0 | 21 ± 1.82 | – | – | – | COc1ccc(/C=C/c2nc(Sc3cc4c(cc3Br)OCO4)c3ccccc3n2)c(OC)c1 [IS17, 5-{2-[(E)-2–(2,4-dimethoxyphenyl)ethenyl]quinazolin-4-ylthio}-6-bromo-2H-1,3-benzodioxole] | > 15 | > 15 | > 15 | > 10 | – | > 15 | 20.2 ± 0.9 | 21.3 ± 0.8

Second part, the compound before the results:

Row | Compound | inhibition at 0.5 µM (BTK) [%] | inhibition at 0.5 µM (Fyn A) [%] | Inhibition of tyrosine kinase activity [%] ABL (ABL) | inhibition at 0.5 µM (ABL) [%] | inhibition at 0.5 µM (BRK) [%] | inhibition at 0.5 µM (CSK) [%] | inhibition at 0.5 µM (Lck) [%] | inhibition at 0.5 µM (Lyn B) [%] | inhibition at 0.5 µM (Src) [%] | Inhibition of tyrosine kinase activity [%] BTK (BTK; 0.5 μM) | Inhibition of tyrosine kinase activity [%] Lyn B (Lyn B; 0.5 μM) [%] | Inhibition of tyrosine kinase activity [%] Src (Src; 0.5 μM) [%] | IC50 (A549) [µM] | IC50 (HCT 116 p53+/+) [µM] | IC50 (HCT 116 p53−/−) [µM] | IC50 (K562) [µM] | IC50 (MCF-7) [µM] | IC50 (PANC-1) [µM] | IC50 (U-251) [µM] | IC50 (NHDF) [µM]
4 | COc1ccc(/C=C/c2nc(NCCCN(C)C)c3ccccc3n2)cc1 [CP-31398, N'-[2-[2–(4-methoxyphenyl)ethenyl]-4-quinazolinyl]-N,N-dimethyl-1,3-propanediamine dihydrochloride, reference compound] | 36.8 ± 3.66 | 30.6 ± 7.83 | – | – | – | – | – | – | – | – | – | – | > 25 | 18.6 ± 0.92 | 26.3 ± 1.41 | 3.09 ± 0.36 | 27 ± 2.1 | > 25 | 18.8 ± 1.65 | 12.3 ± 0.54
5 | COc1ccccc1/C=C/c1nc(Sc2ccccc2Br)c2ccccc2n1 [IS4, 2-[(E)-2–(2-methoxyphenyl)ethenyl]-4–(2-bromophenylthio)quinazoline] | 45.9 ± 7.54 | 34.1 ± 2.53 | – | 29.8 ± 0.95 | 0 | 17.4 ± 6.31 | 0 | 3.39 ± 0.47 | 18.5 ± 1.07 | moderate activity | – | – | > 15 | > 10 | > 10 | > 15 | – | > 25 | > 15 | > 25
6 | COc1ccccc1/C=C/c1nc(Sc2ccc(SC)cc2)c2ccccc2n1 [IS9, 2-[(E)-2–(2-methoxyphenyl)ethenyl]-4-[4-(methylthio)phenylthio]quinazolin] | 28.7 ± 2.94 | 52 ± 3.43 | – | 35.9 ± 7.23 | 19.3 ± 4.65 | 39.2 ± 6.47 | 60.7 ± 5.1 | 57 | 54 | – | 57.44 ± 1.76 | 54.23 ± 3.07 | > 15 | > 20 | > 20 | > 25 | – | > 25 | > 10 | > 25
7 | COc1cccc(Sc2nc(/C=C/c3ccccc3OC)nc3ccccc23)c1 [IS7, 2-[(E)-2–(2-methoxyphenyl)ethenyl]-4–(3-methoxyphenylthio)quinazoline] | 53.5 ± 1.33 | 25.7 ± 2.29 | – | 45.9 ± 2.63 | 0 | 39.3 ± 4.74 | 0 | 0 | 8.17 ± 1.71 | – | – | – | > 15 | > 15 | > 15 | > 10 | – | > 15 | > 15 | > 20
